Experimental data taken from patent publication US10781204B2, “TYK2 inhibitors and uses thereof” (Nimbus Lakshmi, Inc., priority 2015, dated 2020).

Assays:
[1] = test system: JAK2-pSTAT5 (GM-CSF induced pSTAT5); experiment: GM-CSF induced pSTAT5 in human PBMC; type: cell-based; conditions: 5 ng/mL GM-CSF
Summary of the method: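 Thawed human PBMC, 200,000 per well in serum-containing medium, were preincubated 1 hr at 37 C with compound in 0.1% DMSO. GM-CSF at 5 ng/mL final was added for 20 minutes, then pSTAT5 and total STAT5 in lysates were measured by MSD immunoassay.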

TYK2 = TYK2 (Homo sapiens (Human), UniProt P29597); experiment: Tyk2 radioactive kinase assay; type: biochemical; conditions: ATP 10 μM
Sequence of TYK2 (P29597 whole entry): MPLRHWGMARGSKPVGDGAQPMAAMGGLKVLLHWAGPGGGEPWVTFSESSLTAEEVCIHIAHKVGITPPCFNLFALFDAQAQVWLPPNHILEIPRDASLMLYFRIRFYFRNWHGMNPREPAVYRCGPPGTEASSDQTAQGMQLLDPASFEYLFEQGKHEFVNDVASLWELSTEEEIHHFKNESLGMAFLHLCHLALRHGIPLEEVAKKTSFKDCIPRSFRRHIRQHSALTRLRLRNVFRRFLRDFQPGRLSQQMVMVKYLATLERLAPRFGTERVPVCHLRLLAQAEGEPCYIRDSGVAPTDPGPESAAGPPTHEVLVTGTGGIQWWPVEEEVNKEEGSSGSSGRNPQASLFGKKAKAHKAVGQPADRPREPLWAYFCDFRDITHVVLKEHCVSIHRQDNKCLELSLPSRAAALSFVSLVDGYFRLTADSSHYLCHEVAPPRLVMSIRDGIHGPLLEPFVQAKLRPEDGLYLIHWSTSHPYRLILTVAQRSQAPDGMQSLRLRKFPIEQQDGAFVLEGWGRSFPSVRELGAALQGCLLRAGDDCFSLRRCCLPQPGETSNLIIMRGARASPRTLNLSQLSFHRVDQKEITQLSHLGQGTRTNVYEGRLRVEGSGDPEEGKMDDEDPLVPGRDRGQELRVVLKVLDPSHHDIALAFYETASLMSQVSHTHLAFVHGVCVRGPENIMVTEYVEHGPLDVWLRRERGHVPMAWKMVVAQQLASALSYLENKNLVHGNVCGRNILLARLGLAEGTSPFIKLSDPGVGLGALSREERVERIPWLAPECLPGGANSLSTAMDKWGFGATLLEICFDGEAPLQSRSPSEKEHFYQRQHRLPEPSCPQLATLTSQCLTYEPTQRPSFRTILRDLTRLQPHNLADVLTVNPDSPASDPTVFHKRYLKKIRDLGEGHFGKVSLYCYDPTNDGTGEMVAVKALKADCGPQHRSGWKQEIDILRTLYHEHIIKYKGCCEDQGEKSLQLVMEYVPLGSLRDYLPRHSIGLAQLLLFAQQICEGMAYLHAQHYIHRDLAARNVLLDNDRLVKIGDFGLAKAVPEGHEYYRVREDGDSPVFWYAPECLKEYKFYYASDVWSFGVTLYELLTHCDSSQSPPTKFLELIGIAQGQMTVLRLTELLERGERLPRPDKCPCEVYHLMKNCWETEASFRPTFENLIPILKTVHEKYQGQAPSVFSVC
Summary of the method: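 Recombinant human TYK2 (Invitrogen) was mixed with 20 μM peptide substrate in a buffer of 20 mM Hepes pH 7.5, 10 mM MgCl2, 1 mM EGTA, 0.02% Brij35, 0.02 mg/mL BSA, 0.1 mM […], 2 mM DTT and 1% DMSO, and compounds in DMSO were added. Adding ^33P-ATP (10 μM ATP) started the reaction, which ran 120 min at room temperature. Mixtures were then spotted onto P81 ion-exchange paper, washed thoroughly in 0.75% phosphoric acid, and counted for radioactivity.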

[2] = test system: Tyk2-pSTAT4 (IL-12 induced pSTAT4); experiment: IL-12 induced pSTAT4 in human PBMC; type: cell-based; conditions: 1.7 ng/mL IL-12, 30 minutes
Summary of the method: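 pSTAT4 and total STAT4 quantified by MSD in cell lysates after 30 minutes of 1.7 ng/mL IL-12 stimulation. Beforehand, compound (0.1% DMSO final) sat 1 hr at 37 C on 200,000 thawed buffy-coat PBMC per well in serum-containing medium.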

JAK2 = JAK2 (Homo sapiens (Human), UniProt O60674); experiment: JAK2 radioactive kinase assay; type: biochemical; conditions: ATP 10 μM
Sequence of JAK2 (O60674 whole entry): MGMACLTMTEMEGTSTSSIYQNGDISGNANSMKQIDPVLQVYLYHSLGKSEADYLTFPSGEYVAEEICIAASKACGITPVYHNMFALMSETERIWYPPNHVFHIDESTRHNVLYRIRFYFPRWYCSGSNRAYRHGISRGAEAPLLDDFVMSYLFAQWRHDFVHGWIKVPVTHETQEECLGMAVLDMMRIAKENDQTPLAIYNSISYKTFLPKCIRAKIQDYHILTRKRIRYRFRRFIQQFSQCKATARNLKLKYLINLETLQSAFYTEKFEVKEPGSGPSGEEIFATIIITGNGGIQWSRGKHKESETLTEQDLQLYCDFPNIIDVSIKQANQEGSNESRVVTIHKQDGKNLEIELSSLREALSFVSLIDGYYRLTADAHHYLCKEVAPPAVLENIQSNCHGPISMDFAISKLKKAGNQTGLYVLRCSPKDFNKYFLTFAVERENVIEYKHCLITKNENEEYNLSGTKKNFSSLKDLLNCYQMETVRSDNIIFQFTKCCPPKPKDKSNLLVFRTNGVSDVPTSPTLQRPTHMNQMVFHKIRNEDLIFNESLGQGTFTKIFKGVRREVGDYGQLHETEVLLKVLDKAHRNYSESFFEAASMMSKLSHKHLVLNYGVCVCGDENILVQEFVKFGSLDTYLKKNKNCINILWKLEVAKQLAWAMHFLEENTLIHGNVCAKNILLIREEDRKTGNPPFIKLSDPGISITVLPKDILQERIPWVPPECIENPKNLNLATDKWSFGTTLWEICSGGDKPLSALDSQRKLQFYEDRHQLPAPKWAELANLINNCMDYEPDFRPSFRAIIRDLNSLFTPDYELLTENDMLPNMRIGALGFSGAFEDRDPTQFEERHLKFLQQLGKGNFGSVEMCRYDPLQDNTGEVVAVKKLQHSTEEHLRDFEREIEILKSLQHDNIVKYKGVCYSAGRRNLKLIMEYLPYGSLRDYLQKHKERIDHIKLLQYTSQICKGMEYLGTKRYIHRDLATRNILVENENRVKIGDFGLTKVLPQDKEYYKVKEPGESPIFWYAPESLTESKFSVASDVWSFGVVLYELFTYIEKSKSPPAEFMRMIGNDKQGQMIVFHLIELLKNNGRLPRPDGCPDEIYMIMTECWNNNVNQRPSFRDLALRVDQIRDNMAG
Summary of the method: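 Radiometric assay in Hepes pH 7.5, MgCl2, EGTA, Brij35, BSA, DTT, 1% DMSO, with 10 μM [33P]ATP, 120 min at room temp; P81 paper capture and counting. […]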

Row | SMILES | EC50 ([1]; Homo sapiens, PBMC, 20 min) | Ki (TYK2) | EC50 ([2]; Homo sapiens, PBMC, 0.5 h) | Ki (JAK2) | EC50 ([1]; 20 minutes) | EC50 [2]
1 | [2H]C1([2H])N(c2ccn(-c3cc(-c4c(F)cccc4C#N)nc4c3C(=O)NC4)n2)C([2H])([2H])C([2H])([2H])C([2H])(O)C1([2H])[2H] [I-203, 3-fluoro-2-(4-(3-(4-hydroxypiperidin-1-yl-2,2,3,3,4,5,5,6,6-d9)-1H-pyrazol-1-yl)-5-oxo-6,7-dihydro-5H-pyrrolo[3,4-b]pyridin-2-yl)benzonitrile] | 100 to 2000 nM | 0.1 to 10 nM | 30 to 100 nM | 10 to 100 nM |  | 
2 | CC1(C)[C@H](O)CCN1c1ccn(-c2cc(-c3c(F)cccc3C#N)nc3c2C(=O)NC3)n1 [I-204, (R)-3-fluoro-2-(4-(3-(3-hydroxy-2,2-dimethylpyrrolidin-1-yl)-1H-pyrazol-1-yl)-5-oxo-6,7-dihydro-5H-pyrrolo[3,4-b]pyridin-2-yl)benzonitrile] | > 2000 nM | 0.1 to 10 nM | 30 to 100 nM | 10 to 100 nM |  | 
3 | CC1(C)[C@@H](O)CCN1c1ccn(-c2cc(-c3c(F)cccc3C#N)nc3c2C(=O)NC3)n1 [I-205, (S)-3-fluoro-2-(4-(3-(3-hydroxy-2,2-dimethylpyrrolidin-1-yl)-1H-pyrazol-1-yl)-5-oxo-6,7-dihydro-5H-pyrrolo[3,4-b]pyridin-2-yl)benzonitrile] | 100 to 2000 nM | 0.1 to 10 nM | 30 to 100 nM | 10 to 100 nM |  | 
4 | [2H]C1([2H])NC(=O)c2c(-n3ccc(N4C([2H])([2H])C[C@@](O)(C([2H])([2H])[2H])C4([2H])[2H])n3)cc(-c3c(F)cccc3C#N)nc21 [I-206, (S)-3-fluoro-2-(4-(3-(3-hydroxy-3-(methyl-d3)pyrrolidin-1-yl-2,2,5,5-d4)-1H-pyrazol-1-yl)-5-oxo-6,7-dihydro-5H-pyrrolo[3,4-b]pyridin-2-yl-7,7-d2)benzonitrile] | 100 to 2000 nM | 0.1 to 10 nM | 30 to 100 nM | 10 to 100 nM |  | 
5 | [2H]C1([2H])NC(=O)c2c(-n3ccc(N4C([2H])([2H])C[C@](O)(C([2H])([2H])[2H])C4([2H])[2H])n3)cc(-c3c(F)cccc3C#N)nc21 [I-207, (R)-3-fluoro-2-(4-(3-(3-hydroxy-3-(methyl-d3)pyrrolidin-1-yl-2,2,5,5-d4)-1H-pyrazol-1-yl)-5-oxo-6,7-dihydro-5H-pyrrolo[3,4-b]pyridin-2-yl-7,7-d2)benzonitrile] | 100 to 2000 nM | 0.1 to 10 nM | 30 to 100 nM | 10 to 100 nM |  | 
6 | [2H]C1([2H])N(c2ccn(-c3cc(-c4c(F)cccc4C#N)nc4c3C(=O)NC4)n2)C([2H])([2H])[C@]([2H])(O)C1([2H])[2H] [I-208, (R)-3-fluoro-2-(4-(3-(3-hydroxypyrrolidin-1-yl-2,2,3,4,4,5,5-d7)-1H-pyrazol-1-yl)-5-oxo-6,7-dihydro-5H-pyrrolo[3,4-b]pyridin-2-yl)benzonitrile] | > 2000 nM | 0.1 to 10 nM | 100 to 2000 nM | 10 to 100 nM |  | 
7 | [2H]C1([2H])N(c2ccn(-c3cc(-c4c(F)cccc4C#N)nc4c3C(=O)NC4)n2)C([2H])([2H])[C@@]([2H])(O)C1([2H])[2H] [I-209, (S)-3-fluoro-2-(4-(3-(3-hydroxypyrrolidin-1-yl-2,2,3,4,4,5,5-d7)-1H-pyrazol-1-yl)-5-oxo-6,7-dihydro-5H-pyrrolo[3,4-b]pyridin-2-yl)benzonitrile] | > 2000 nM | 0.1 to 10 nM | 100 to 2000 nM | 10 to 100 nM |  | 
8 | CC(=O)Nc1ccn(-c2cc(-c3c(F)cccc3C#N)nc3c2C(=O)NC3)n1 [I-212, N-(1-(2-(2-cyano-6-fluorophenyl)-5-oxo-6,7-dihydro-5H-pyrrolo[3,4-b]pyridin-4-yl)-1H-pyrazol-3-yl)acetamide] | > 2000 nM | 0.1 to 10 nM | 100 to 2000 nM | 100 to 1000 nM |  | 
9 | N#Cc1cccc(F)c1-c1cc(-n2ccc(N3C[C@H](O)C[C@H]3CO)n2)c2c(n1)CNC2=O [I-214, 3-fluoro-2-(4-(3-((2S,4R)-4-hydroxy-2-(hydroxymethyl)pyro-lidin-1-yl)-1H-pyrazol-1-yl)-5-oxo-6,7-dihydro-5H-pyrrolo[3,4-b]pyridin-2-yl)benzonitrile] | > 2000 nM | 0.1 to 10 nM | 100 to 2000 nM | 10 to 100 nM |  | 
10 | [2H]C1([2H])N(c2ccn(-c3cc(-c4c(F)cccc4C#N)nc4c3C(=O)NC4)n2)C([2H])([2H])[C@](C)(O)C([2H])([2H])C1([2H])[2H] [I-220, (R)-3-fluoro-2-(4-(3-(3-hydroxy-3-methylpiperidin-1-yl-2,2,4,4,5,5,6,6-d8)-1H-pyrazol-1-yl)-5-oxo-6,7-dihydro-5H-pyrrolo[3,4-b]pyridin-2-yl)benzonitrile] | > 2000 nM | 0.1 to 10 nM | 100 to 2000 nM | 10 to 100 nM |  | 
11 | N#Cc1cccc(F)c1-c1cc(-n2ccc(N3CC[C@]4(C3)OC[C@H](O)CO4)n2)c2c(n1)CNC2=O [I-221, 3-fluoro-2-(4-(3-((5r,8r)-8-hydroxy-6,10-dioxa-2-azaspiro-[4.5]decan-2-yl)-1H-pyrazol-1-yl)-5-oxo-6,7-dihydro-5H-pyrrolo[3,4-b]pyridin-2-yl)benzonitrile] | 100 to 2000 nM | 0.1 to 10 nM | 100 to 2000 nM | 0.1 to 10 nM |  | 

Further lines, results first:

Row | EC50 ([1]; Homo sapiens, PBMC, 20 min) | Ki (TYK2) | EC50 ([2]; Homo sapiens, PBMC, 0.5 h) | Ki (JAK2) | EC50 ([1]; 20 minutes) | EC50 [2] | SMILES
12 | 100 to 2000 nM | 0.1 to 10 nM | 30 to 100 nM | 10 to 100 nM |  |  | CO[C@H]1CCN(c2ccn(-c3cc(-c4c(F)cccc4C#N)nc4c3C(=O)NC4)n2)C[C@@H]1O [I-210, 3-fluoro-2-(4-(3-((3S,4S)-3-hydroxy-4-methoxypiperidin-1-yl)-1H-pyrazol-1-yl)-5-oxo-6,7-dihydro-5H-pyrrolo[3,4-b]pyridin-2-yl)benzonitrile]
13 |  | 0.1 to 10 nM |  | 10 to 100 nM | > 2000 nM | 100 to 2000 nM | CO[C@@H]1CCN(c2ccn(-c3cc(-c4c(F)cccc4C#N)nc4c3C(=O)NC4)n2)C[C@H]1O [I-211, 3-fluoro-2-(4-(3-((3R,4R)-3-hydroxy-4-methoxypiperidin-1-yl)-1H-pyrazol-1-yl)-5-oxo-6,7-dihydro-5H-pyrrolo[3,4-b]pyridin-2-yl)benzonitrile]
14 |  | 0.009 to 0.1 nM | 100 to 2000 nM | 10 to 100 nM | > 2000 nM |  | CO[C@@H]1CCN(c2ccn(-c3cc(-c4c(F)cccc4C#N)nc4c3C(=O)NC4)n2)C[C@]1(C)O [I-213, 3-fluoro-2-(4-(3-((3S,4R)-3-hydroxy-4-methoxy-3-methylpiperidin-1-yl)-1H-pyrazol-1-yl)-5-oxo-6,7-dihydro-5H-pyrrolo[3,4-b]pyridin-2-yl)benzonitrile]
15 | 100 to 2000 nM | 0.1 to 10 nM |  | 10 to 100 nM |  | 100 to 2000 nM | N#Cc1cccc(F)c1-c1cc(-n2ccc(N3CC[C@H](C#N)[C@@H](O)C3)n2)c2c(n1)CNC2=O [I-215, (3R,4R)-1-(1-(2-(2-cyano-6-fluorophenyl)-5-oxo-6,7-dihydro-5H-pyrrolo[3,4-b]pyridin-4-yl)-1H-pyrazol-3-yl)-3-hydroxypiperidine-4-carbonitrile]
16 |  | 0.1 to 10 nM |  | 0.1 to 10 nM | 100 to 2000 nM | 30 to 100 nM | N#Cc1cccc(F)c1-c1cc(-n2ccc(N3CC[C@H](C#N)[C@@H](O)C3)n2)c2c(n1)CNC2=O [I-216, (3R,4R)-1-(1-(2-(2-cyano-6-fluorophenyl)-5-oxo-6,7-dihydro-5H-pyrrolo[3,4-b]pyridin-4-yl)-1H-pyrazol-3-yl)-3-hydroxypiperidine-4-carbonitrile]
17 | 100 to 2000 nM | 0.1 to 10 nM | 30 to 100 nM | 0.1 to 10 nM |  |  | N#Cc1cccc(F)c1-c1cc(-n2ccc(N3CC[C@@H](C#N)[C@H](O)C3)n2)c2c(n1)CNC2=O [I-217, (3S,4S)-1-(1-(2-(2-cyano-6-fluorophenyl)-5-oxo-6,7-dihydro-5H-pyrrolo[3,4-b]pyridin-4-yl)-1H-pyrazol-3-yl)-3-hydroxypiperidine-4-carbonitrile]
18 | 100 to 2000 nM | 0.1 to 10 nM | 100 to 2000 nM | 10 to 100 nM |  |  | N#Cc1cccc(F)c1-c1cc(-n2ccc(N3CC[C@@H](O)[C@@H](N4CCOCC4)C3)n2)c2c(n1)CNC2=O [I-218, 3-fluoro-2-(4-(3-((3S,4R)-4-hydroxy-3-morpholinopiperidin-1-yl)-1H-pyrazol-1-yl)-5-oxo-6,7-dihydro-5H-pyrrolo[3,4-b]pyridin-2-yl)benzonitrile]
19 | 100 to 2000 nM | 0.1 to 10 nM | 100 to 2000 nM | 10 to 100 nM |  |  | CC1(O)CN(c2ccn(-c3cc(-c4c(F)cccc4C#N)nc4c3C(=O)NC4)n2)CCC1F (centres unmarked) [I-219, 3-fluoro-2-(4-(3-(4-fluoro-3-hydroxy-3-methylpiperidin-1-yl)-1H-pyrazol-1-yl)-5-oxo-6,7-dihydro-5H-pyrrolo[3,4-b]pyridin-2-yl)benzonitrile]
20 | 100 to 2000 nM | 0.1 to 10 nM | 100 to 2000 nM | 10 to 100 nM |  |  | [2H]C([2H])([2H])O[C@@H]1CN(c2ccn(-c3cc(-c4c(F)cccc4C#N)nc4c3C(=O)NC4)n2)C[C@@H]1O [I-223, 3-fluoro-2-(4-(3-((3S,4R)-3-hydroxy-4-(methoxy-d3)pyrrolidin-1-yl)-1H-pyrazol-1-yl)-5-oxo-6,7-dihydro-5H-pyrrolo[3,4-b]pyridin-2-yl)benzonitrile]
